# Data taken from patent US20250172566A1, “SACCHARIDE SENSING SYSTEMS” (CARBOMETRICS LIMITED, priority 2022, published 2025).
# Test: Fluorescent solution phase glucose responsive assay (pH 7.4, 298 K)
# Conditions: Ex 470 nm
# Description: Fluorescence spectroscopy was performed on either a HORIBA Duetta or BMG Labtech CLARIOstar plus plate reader. Emission spectra were obtained using the appropriate excitation wavelength and at a temperature of either 298 or 310 K and at pH 7.4 unless otherwise stated. Data collection and analysis were performed using EzSpec software by HORIBA or CLARIOstar MARS software by BMG Labtech. Further analysis and processing were performed in Microsoft Excel.
# A solution of GBM and FIM at the required concentrations were created in the appropriate media. The emission spectrum of the assay was then acquired by exciting at the designated excitation wavelength to obtain the baseline emission intensity for the assay. Aliquots of 2 M D-glucose (in the same media) were then added to give the required final glucose concentrations (e.g. 15 μL of 2 M D-glucose in 3 mL gives a final D-glucose concentration of 10 mM) and the assay allowed to reach equilibration. The emission spectra were collected after each addition of D-glucose and compared to the original baseline emission, monitoring at the typical emission maximum (Emmax), and the percentage increase or decrease recorded. Emission spectra acquired on either a Horiba Duetta fluorometer or Clariostar plus plate reader.
# The glucose responsive fluorescence emission for different combinations of glucose binding molecules (GBM) and fluorescent inhibitor molecules (FIM) at various concentrations and in various media was tested as described above. All results obtained at pH 7.4 and 298 K unless otherwise stated.
# All results obtained at pH 7.4 and 298 K unless otherwise stated.
# Table 4 provides the composition of the assay media used as the code assigned to each media as used in Tables 1 to 3.
compound,measurement,setting,value
O=C(CNC(=O)[C@H](Cc1cn(CCOCCOCCOCCOc2ccc(CCO[C@@H]3O[C@H](CO)[C@@H](O)[C@H](O)[C@H]3O)cc2)nn1)NC(=O)CCCC[C@@H]1SC[C@@H]2NCN[C@@H]21)Nc1ccc2c(c1)C(=O)OC21c2ccc(O)cc2Oc2cc(O)ccc21 [FIM35],Change in Emmax for FIM at a particular D-glucose concentration,"20 mM D-glucose, GBM29 50 μM, FIM 1 μM, medium B, Emmax 520 nm",60%
same,Change in Emmax for FIM at a particular D-glucose concentration,"20 mM D-glucose, GBM29 50 μM, FIM 1 μM, medium B, Emmax 520 nm, separate GBM and FIM components mixed with 0.25 molar equivalents of streptavidin tetramer prior to formulation of assay",40%
CC(C)(C)OC(=O)N[C@@H](Cc1cn(CCCC[C@@H](C(=O)Nc2ccc(CCO[C@@H]3O[C@H](CO)[C@@H](O)[C@H](O)[C@H]3O)cc2)[N+](C)(C)C)nn1)C(=O)NCCOCCOCCOCCn1cc(CNC(=O)c2ccc3c(c2)C(=O)OC32c3ccc(O)cc3Oc3cc(O)ccc32)nn1 [FIM32],Change in Emmax for FIM at a particular D-glucose concentration,"5 mM D-glucose, GBM15 10 μM, FIM 1 μM, medium B, Emmax 520 nm",170%
same,Change in Emmax for FIM at a particular D-glucose concentration,"5 mM D-glucose, GBM15 50 μM, FIM 0.5 μM, medium B, Emmax 520 nm",140%
same,Change in Emmax for FIM at a particular D-glucose concentration,"5 mM D-glucose, GBM15 50 μM, FIM 5 μM, medium B, Emmax 520 nm",110%
same,Change in Emmax for FIM at a particular D-glucose concentration,"5 mM D-glucose, GBM15 50 μM, FIM 10 μM, medium B, Emmax 520 nm",110%
same,Change in Emmax for FIM at a particular D-glucose concentration,"5 mM D-glucose, GBM15 100 μM, FIM 1 μM, medium B, Emmax 520 nm",95%
same,Change in Emmax for FIM at a particular D-glucose concentration,"5 mM D-glucose, GBM15 200 μM, FIM 2 μM, medium B, Emmax 520 nm",85%
same,Change in Emmax for FIM at a particular D-glucose concentration,"5 mM D-glucose, GBM15 200 μM, FIM 5 μM, medium B, Emmax 520 nm",50%
same,Change in Emmax for FIM at a particular D-glucose concentration,"5 mM D-glucose, GBM15 200 μM, FIM 10 μM, medium B, Emmax 520 nm",50%
same,Change in Emmax for FIM at a particular D-glucose concentration,"10 mM D-glucose, GBM15 10 μM, FIM 1 μM, medium B, Emmax 520 nm",190%
same,Change in Emmax for FIM at a particular D-glucose concentration,"10 mM D-glucose, GBM15 50 μM, FIM 0.5 μM, medium B, Emmax 520 nm",195%
same,Change in Emmax for FIM at a particular D-glucose concentration,"10 mM D-glucose, GBM15 50 μM, FIM 5 μM, medium B, Emmax 520 nm",155%
same,Change in Emmax for FIM at a particular D-glucose concentration,"10 mM D-glucose, GBM15 50 μM, FIM 10 μM, medium B, Emmax 520 nm",145%
same,Change in Emmax for FIM at a particular D-glucose concentration,"10 mM D-glucose, GBM15 100 μM, FIM 1 μM, medium B, Emmax 520 nm",135%
same,Change in Emmax for FIM at a particular D-glucose concentration,"10 mM D-glucose, GBM15 200 μM, FIM 2 μM, medium B, Emmax 520 nm",115%
same,Change in Emmax for FIM at a particular D-glucose concentration,"10 mM D-glucose, GBM15 200 μM, FIM 5 μM, medium B, Emmax 520 nm",85%
same,Change in Emmax for FIM at a particular D-glucose concentration,"10 mM D-glucose, GBM15 200 μM, FIM 10 μM, medium B, Emmax 520 nm",85%
same,Change in Emmax for FIM at a particular D-glucose concentration,"20 mM D-glucose, GBM15 10 μM, FIM 1 μM, medium B, Emmax 520 nm",200%
same,Change in Emmax for FIM at a particular D-glucose concentration,"20 mM D-glucose, GBM15 50 μM, FIM 0.5 μM, medium B, Emmax 520 nm",240%
same,Change in Emmax for FIM at a particular D-glucose concentration,"20 mM D-glucose, GBM15 50 μM, FIM 5 μM, medium B, Emmax 520 nm",185%
same,Change in Emmax for FIM at a particular D-glucose concentration,"20 mM D-glucose, GBM15 50 μM, FIM 10 μM, medium B, Emmax 520 nm",190%
same,Change in Emmax for FIM at a particular D-glucose concentration,"20 mM D-glucose, GBM15 100 μM, FIM 1 μM, medium B, Emmax 520 nm",160%
same,Change in Emmax for FIM at a particular D-glucose concentration,"20 mM D-glucose, GBM15 200 μM, FIM 2 μM, medium B, Emmax 520 nm",145%
same,Change in Emmax for FIM at a particular D-glucose concentration,"20 mM D-glucose, GBM15 200 μM, FIM 5 μM, medium B, Emmax 520 nm",125%
same,Change in Emmax for FIM at a particular D-glucose concentration,"20 mM D-glucose, GBM15 200 μM, FIM 10 μM, medium B, Emmax 520 nm",115%
same,Change in Emmax for FIM at a particular D-glucose concentration,"40 mM D-glucose, GBM15 10 μM, FIM 1 μM, medium B, Emmax 520 nm",220%
same,Change in Emmax for FIM at a particular D-glucose concentration,"40 mM D-glucose, GBM15 50 μM, FIM 0.5 μM, medium B, Emmax 520 nm",265%
same,Change in Emmax for FIM at a particular D-glucose concentration,"40 mM D-glucose, GBM15 50 μM, FIM 5 μM, medium B, Emmax 520 nm",205%
same,Change in Emmax for FIM at a particular D-glucose concentration,"40 mM D-glucose, GBM15 100 μM, FIM 1 μM, medium B, Emmax 520 nm",220%
same,Change in Emmax for FIM at a particular D-glucose concentration,"40 mM D-glucose, GBM15 200 μM, FIM 2 μM, medium B, Emmax 520 nm",200%
same,Change in Emmax for FIM at a particular D-glucose concentration,"40 mM D-glucose, GBM15 200 μM, FIM 5 μM, medium B, Emmax 520 nm",175%
same,Change in Emmax for FIM at a particular D-glucose concentration,"40 mM D-glucose, GBM15 200 μM, FIM 10 μM, medium B, Emmax 520 nm",130%
same,Change in Emmax for FIM at a particular D-glucose concentration,"60 mM D-glucose, GBM15 50 μM, FIM 0.5 μM, medium B, Emmax 520 nm",310%
same,Change in Emmax for FIM at a particular D-glucose concentration,"60 mM D-glucose, GBM15 50 μM, FIM 5 μM, medium B, Emmax 520 nm",225%
same,Change in Emmax for FIM at a particular D-glucose concentration,"60 mM D-glucose, GBM15 200 μM, FIM 2 μM, medium B, Emmax 520 nm",215%
same,Change in Emmax for FIM at a particular D-glucose concentration,"60 mM D-glucose, GBM15 200 μM, FIM 5 μM, medium B, Emmax 520 nm",190%
same,Change in Emmax for FIM at a particular D-glucose concentration,"60 mM D-glucose, GBM15 200 μM, FIM 10 μM, medium B, Emmax 520 nm",160%
same,Change in Emmax for FIM at a particular D-glucose concentration,"80 mM D-glucose, GBM15 50 μM, FIM 5 μM, medium B, Emmax 520 nm",235%
same,Change in Emmax for FIM at a particular D-glucose concentration,"80 mM D-glucose, GBM15 200 μM, FIM 5 μM, medium B, Emmax 520 nm",200%
same,Change in Emmax for FIM at a particular D-glucose concentration,"80 mM D-glucose, GBM15 200 μM, FIM 10 μM, medium B, Emmax 520 nm",170%
CC(C)(C)OC(=O)N[C@@H](Cc1cn(CCCC[C@@H](C(=O)NCC(CO[C@@H]2O[C@H](CO)[C@@H](O)[C@H](O)[C@H]2O)c2ccccc2)[N+](C)(C)C)nn1)C(=O)NCCOCCOCCn1cc(CNC(=O)c2ccc3c(c2)C(=O)OC32c3ccc(N)c(S(=O)(=O)[O-])c3Oc3c2ccc(N)c3S(=O)(=O)O)nn1 (stereo partly drawn) [FIM50],Change in Emmax for FIM at a particular D-glucose concentration,"5 mM D-glucose, GBM7 50 μM, FIM 2 μM, medium B, Emmax 520 nm",140%
same,Change in Emmax for FIM at a particular D-glucose concentration,"5 mM D-glucose, GBM15 100 μM, FIM 2 μM, medium B, Emmax 520 nm",50%
same,Change in Emmax for FIM at a particular D-glucose concentration,"10 mM D-glucose, GBM7 50 μM, FIM 2 μM, medium B, Emmax 520 nm",180%
same,Change in Emmax for FIM at a particular D-glucose concentration,"10 mM D-glucose, GBM15 100 μM, FIM 2 μM, medium B, Emmax 520 nm",70%
same,Change in Emmax for FIM at a particular D-glucose concentration,"20 mM D-glucose, GBM7 50 μM, FIM 2 μM, medium B, Emmax 520 nm",200%
same,Change in Emmax for FIM at a particular D-glucose concentration,"20 mM D-glucose, GBM15 100 μM, FIM 2 μM, medium B, Emmax 520 nm",90%
C[N+](C)(C)[C@@H](CCCCNC(=O)[C@@H](N)CCCCn1cc(CNC(=O)c2ccc3c(c2)C2(OC3=O)c3ccc(N)c(S(=O)(=O)O)c3Oc3c2ccc(N)c3S(=O)(=O)O)nn1)C(=O)Nc1ccc(CCO[C@@H]2O[C@H](CO)[C@@H](O)[C@H](O)[C@H]2O)cc1 [FIM39],Change in Emmax for FIM at a particular D-glucose concentration,"5 mM D-glucose, GBM7 30 μM, FIM 1 μM, medium B, Emmax 520 nm",95%
same,Change in Emmax for FIM at a particular D-glucose concentration,"10 mM D-glucose, GBM7 30 μM, FIM 1 μM, medium B, Emmax 520 nm",115%
same,Change in Emmax for FIM at a particular D-glucose concentration,"20 mM D-glucose, GBM7 30 μM, FIM 1 μM, medium B, Emmax 520 nm",120%
Cc1ccc2n1[B-](F)(F)[N+]1=C(/C=C/c3ccc(C(=O)O)cc3)C=CC1=C2c1ccccc1OCc1cn(CCOCCOCCOCCO[C@@H]2O[C@H](CO)[C@@H](O)[C@H](O)[C@H]2O)nn1 [FIM31],Change in Emmax for FIM at a particular D-glucose concentration,"20 mM D-glucose, GBM22 5 μM, FIM 1 μM, medium A, Emmax 590 nm",90%
